Data as given in patent publication US11091429B2, “Organic compounds” (Givaudan SA, priority 2012, dated 2021).

Tests used:
[1] = Tasting in vanilla flavoured milk 3.0% fat; details: 2 ppm, 4% sugar, vanillin 10 ppm, vanilla extract 0.03%
Procedure: Vanilla Flavoured Milk 3.0% Fat
In a 3% fat milk drink, sweetened with 4% sucrose by weight, flavoured with Vaniline @ 10 ppm and a Vanilla extract @ 0.03% C18:2-gaba, C18:1-ACOA and C18:1-glu were added at 0.5 or 2 ppm.
(§1) Samples were evaluated by expert tasters. Tasters were asked to describe the samples focusing on authentic taste, mouthfeel, fullness, salivation, sweetness, juiciness, richness, long lastingness and fattiness.
Base: Milk 3% fat, 4% sugar, vanillin 10 ppm, vanilla extract 0.03%

[2] = Tasting in UHT milk, cream flavoured; details: 2 ppm, cream flavour 0.03%
Procedure: The following tests were carried out on dairy products processed by fermentation, pasteurization or UHT. The products contain fat, protein and calcium.
UHT Milk Cream Flavoured, Non Sweetened and Different Fat Levels
In a UHT milk containing 0%, 1.5% and 3% fat, flavoured with a proprietary cream flavour closed at 0.03% C18:2 gaba was added at 2 ppm.
Samples were evaluated by expert tasters.
Tasters were asked to describe the samples focusing on authentic taste, mouthfeel, fullness, salivation, sweetness, juiciness, richness, long lastingness and fattiness. The results are presented below:—

[3] = Tasting in low fat mayonnaise
Procedure: (§2) The following formulations were prepared and tasted by trained panelists.
Low fat Mayonnaise (27% Fat, 9% carbohydrates (of which 5% sugar), 1.4% salt)
(§3) Samples were prepared and evaluated by expert tasters. Tasters were asked to describe the samples focusing on authentic taste, mouthfeel, fullness, salty-ness, salivation, umami, sweetness, juiciness, richness, long lastingness and fattiness.
Calve 60% Reduced Fat Mayonnaise
Base is Calve Mayonnaise 60% reduced fat (market Product)
Samples were prepared and evaluated by expert tasters. Tasters were asked to describe the samples focusing on authentic taste, mouthfeel, fullness, salivation, salty-ness, umami, sweetness, juiciness, richness, long lastingness and fattiness.
Low fat Mayonnaise (27% Fat)

Test on Heineken beer = details: 0.5 ppm, 4% alcohol
Procedure: In Heineken beer (Market Product) containing 4% alcohol C18:2-gaba was added at 0.5 ppm
Samples were evaluated by expert tasters. Tasters were asked to describe the samples focusing on authentic taste, alcohol impact, malt taste, hop taste, mouthfeel, fullness, salivation, sweetness, bitterness, richness, long lastingness and fattiness.
(§4) Samples were evaluated by expert tasters. Tasters were asked to describe the samples focusing on authentic taste, mouthfeel, fullness, salty-ness, salivation, umami, sweetness, juiciness, richness, long lastingness and fattiness.
Base: Heineken beer (containing 4% alcohol)

[4] = Test in chocolate flavoured drink; details: 2 ppm; water, 4% sucrose, chocolate flavour 0.03%
Procedure: as §3
Test in Chocolate Flavoured Drink:
Base: Water, 4% sucrose, proprietary chocolate flavor at 0.03%
as §4
Test in Chocolate Flavoured Drink Flavoured
Base: Water, 4% sucrose, proprietary chocolate flavour @ 0.03%

[5] = Tasting on fried potato snack product; details: 35% fat, cheese seasoning
Procedure: as §2
A snack product consisting of a fried potato base, containing 35% fat and flavored with cheese seasoning containing salt, MSG, dairy, organic acids, sugars, and a flavour formulation. The following compounds were added to the snack product at the indicated levels and the tasting results are reported: […]

Tasting of baked pizza = details: 0.5 PPM in the crust and 0.5 PPM in the tomato sauce, baked at 200 degrees Celsius
Procedure: as §2
Differentiator high temperature 100-250 degrees Celsius in hot air baking process
C18:2 gaba @ 0.5 PPM in the crust and @ 0.5 PPM in the tomato sauce
The pizza was topped off with cheese and baked in a hot air oven @ 200 degrees Celsius

[6] = Tasting in Activa strawberry yoghurt; details: 2 ppm, 13.5% sugar, 3.2% fat
Description: Activa Strawberry Yoghurt
In a Full fat, Activa strawberry flavoured yoghurt containing 13.5% sugar, 3.2% fat C18:2-gaba and C18:0-leu at 2 ppm

Tasting in butter = details: 1 ppm in Blueband butter 82% fat 1.5% salt
Procedure: as §2
Blueband 82% fat 1.5% salt

[7] = Tasting in mango still beverage, 4% clear mango juice; details: 1 ppm; 4% clear mango juice (30% reduced juice)
Procedure: Mango Flavoured Still Beverage Containing Different Levels of Juice,
In a Mango flavoured still beverage, sweetened with 8% sucrose and containing 0.1% citric acid and 1%, 4% and 6% clear mango juice flavoured with a proprietary Mango flavour @ 0.05%, C18:2-gaba and C18:2-Pro were added, as such (separate) and in combination.
All samples were evaluated by expert tasters. Tasters were asked to describe the samples focusing on authentic taste, juicy mouthfeel, enhancement, richness, juiciness, long lastingness, salivation, sweetness.
In a Mango flavoured still beverage, sweetened with 8% sucrose & containing 0.1% citric acid and 4% clear mango juice flavoured with Mango flavour @ 0.05%, C18:2-gaba and C18:2-Pro were added, as such (separate) and in combination.
Base is water, 8% sucrose, 0.1% citric acid, 4% clear mango juice (30% reduced juice), flavoured with Mango flavor, dosed at 0.05%

Test on Breezer Orange = details: 0.5 ppm, 4% alcohol
Procedure: Samples were evaluated by expert tasters. Tasters were asked to describe the samples focusing on authentic taste, alcohol impact, juiciness, mouthfeel, fullness, salivation, sweetness, bitterness, richness, long lastingness and fattiness.

[8] = Test in pear flavoured drink; details: 1 ppm; water, 7% sugar (8% elsewhere in the source), 0.1% citric acid, pear flavour 0.025%
Tasting in soy milk = details: 2 ppm, soy milk (1.8% fat), 5% sucrose, milk flavour 0.1%
Procedure: In a soy milk (1.8% fat) sweetened with 5% sucrose by weight, flavoured with a proprietary milk flavour ata dosage of 0.1%, C18:2-gaba was added at 2 ppm
as §1

[9] = Tasting in beef bouillon base; details: 0.5 PPM in beef bouillon base 1.0% salt, 0.5% fat
Procedure: as §2
Beef Bouillon base 1.0% salt, 0.5% fat

[10] = Tasting of chicken filet fried in oil
Procedure: as §2
Differentiator high temperature 100-250 degrees Celsius in a frying in oil process
C18:2 gaba @ 2.0 PPM in 135 gram frying oil (blue band 82% Fat) 450 gram chicken filet 2 minutes high fire and 5 minutes medium fire.

Compound: CCCCC/C=C\C/C=C\CCCCCCCC(=O)NCCCC(=O)O [C18:2-gaba]
- tasting result [1]: beany, fatty, authentic, sweet
- tasting result ([2]; UHT milk 0% fat): Very creamy, milky, long lasting
- tasting result ([2]; UHT milk 1.5% fat): very creamy, milky, long lasting, salivating
- tasting result ([2]; UHT milk 3.0% fat): very creamy, milky, long lasting, taste like whipped cream
- tasting result ([3]; 0.5 ppm in Calve Mayonnaise 60% reduced fat): full, rich, creamy, more egg yolk taste
- tasting result ([3]; 0.5 ppm in low fat mayonnaise (27% fat)): creamy, thick mouthfeel with a full fat impression
- tasting result (Test on Heineken beer): more hoppy, more bitter, more malt and stronger alcohol impact
- tasting result (Test on Heineken beer; listed as C18:2 gaba): more happy, more bitter, more malt and stronger alcohol impact
- tasting result [4]: full, sweeter, more vanillic, milk chocolate is enhanced, very long lasting
- tasting result ([5]; 0.5 ppm on fried potato snack): increased dairy, cheesy
- tasting result ([5]; 1 ppm on fried potato snack): Fatty full, cheesy, cheese crust, long lasting
- tasting result (Tasting of baked pizza): The crust was less dry, more succulent and the tomato was richer, sweeter and the total lingering aftertaste was very rich and pleasant
- tasting result [6]: very creamy, full and fresh strawberry
- tasting result (Tasting in butter): more authentic butter taste, with more mouthfeel
- tasting result [7]: fatty skin-like, very juicy, authentic mango, long lasting mango taste, more mouthfeel than the full juice product
- tasting result (Test on Breezer Orange): more alcoholic, sweeter, more juicy orange, less soapy
- tasting result [8]: long lasting, juicy and fatty skin like very authentic, like eating the fruit instead of drinking a drink
- tasting result (Tasting in soy milk): clean, creamy, good masking of the soy bean taste, creamy and milky
- tasting result [9]: Strong, Salty, Umami, mouthfeel
- taste of the frying oil ([10]; 2.0 PPM in 135 gram frying oil (blue band 82% Fat)): more savoury golden brown notes
- taste of the chicken ([10]; 2.0 PPM in 135 gram frying oil, 450 gram chicken filet, 2 minutes high fire and 5 minutes medium fire): more juicy, succulent, lingering more white meat
